Experimental data as given in patent publication US11077090B2, “Compounds and compositions and uses thereof” (Sunovion Pharmaceuticals Inc., priority 2016, dated 2021).
Where two headings read alike, the source gives them in different places.

Tested on: compound-treated mice
Test: Neuropharmacological assay (SmartCube): behavioral activity signature and minimal effective dose
Type: in vivo
Conditions: for minimal effective dose: Mus musculus, ip; for AD: ADHD (probability of activity signature) / AG: analgesic (probability of activity signature) / AX: anxiolytic (probability of activity signature) / CE: cognitive enhancer (probability of activity signature) / DP: anti-depressant (probability of activity signature) / MS: mood stabilizer (probability of activity signature) / PS: anti-psychotic (probability of activity signature) / SD: sedative hypnotic (probability of activity signature) / UN: uncharacterized CNS activity (probability of activity signature): i.p. 15 min before test, most efficacious dose(s)
Method in brief: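 Mice dosed i.p. 15 min before test, compound in N-methyl-2-pyrrolidone/PEG/propylene glycol, 3 doses; video-captured behavior matched to reference-drug signatures, giving per-class probabilities at most efficacious dose. MED from doses typically 0.3–30 mpk, defined as lowest dose with ≥50% total activity.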

[1] = MED = dose having 50% or more total activity, read-out: Potency: minimal effective dose (MED)
[2] = MED = dose having 50% or more total activity, read-out: Potency: minimal effective dose (MED), binned
[3] = MED = dose having 50% or more total activity

| Compound | minimal effective dose [1] | AD: ADHD (probability of activity signature) | AG: analgesic (probability of activity signature) | AX: anxiolytic (probability of activity signature) | CE: cognitive enhancer (probability of activity signature) | DP: anti-depressant (probability of activity signature) | MS: mood stabilizer (probability of activity signature) | PS: anti-psychotic (probability of activity signature) | SD: sedative hypnotic (probability of activity signature) | UN: uncharacterized CNS activity (probability of activity signature) | minimal effective dose [2] | Potency: minimal effective dose (MED), binned [3] | Potency: minimal effective dose (MED) [3] |
| --- | --- | --- | --- | --- | --- | --- | --- | --- | --- | --- | --- | --- | --- |
| Cc1ccc2c(c1)[C@H](N)CCOC2 (single isomer, unassigned) [Example 115] | 3 to 10 mg/kg | + (LOQ ≤ + <5%) | ++ (5% ≤ ++ <25%) | ++ (5% ≤ ++ <25%) | ++ (5% ≤ ++ <25%) | ++ (5% ≤ ++ <25%) | + (LOQ ≤ + <5%) | +++ (25% ≤ +++ <50%) | ++ (5% ≤ ++ <25%) | +++ (25% ≤ +++ <50%) | – | – | – |
| Cc1cccc2c1[C@@H](N)[C@H](C)OC2 (single isomer, unassigned) [Example 168] | – | + (LOQ ≤ + <5%) | + (LOQ ≤ + <5%) | ++ (5% ≤ ++ <25%) | ++ (5% ≤ ++ <25%) | ++ (5% ≤ ++ <25%) | + (LOQ ≤ + <5%) | +++ (25% ≤ +++ <50%) | + (LOQ ≤ + <5%) | ++++ (50% ≤ ++++) | 3 to 10 mg/kg | – | – |
| Cc1ccc2c(c1)[C@H](N)[C@@H](C)OC2 [Example 155] | 3 to 10 mg/kg | + (LOQ ≤ + <5%) | ++ (5% ≤ ++ <25%) | ++++ (50% ≤ ++++) | ++ (5% ≤ ++ <25%) | ++ (5% ≤ ++ <25%) | + (LOQ ≤ + <5%) | ++ (5% ≤ ++ <25%) | ++ (5% ≤ ++ <25%) | ++ (5% ≤ ++ <25%) | – | – | – |
| C[C@H]1OCc2cccc(Cl)c2[C@@H]1N.Cl [Example 81] | < 3 mg/kg | + (LOQ ≤ + <5%) | ++ (5% ≤ ++ <25%) | +++ (25% ≤ +++ <50%) | ++ (5% ≤ ++ <25%) | ++ (5% ≤ ++ <25%) | + (LOQ ≤ + <5%) | ++ (5% ≤ ++ <25%) | ++ (5% ≤ ++ <25%) | +++ (25% ≤ +++ <50%) | – | – | – |
| CCN(C)C(=O)Oc1ccc2c(c1)CO[C@H](C)[C@H]2N(C)C.Cl [Example 286] | – | + (LOQ ≤ + <5%) | + (LOQ ≤ + <5%) | + (LOQ ≤ + <5%) | + (LOQ ≤ + <5%) | ++ (5% ≤ ++ <25%) | ++ (5% ≤ ++ <25%) | + (LOQ ≤ + <5%) | ++ (5% ≤ ++ <25%) | ++ (5% ≤ ++ <25%) | 10 to 30 mg/kg | – | – |
| CC(C)C[C@@H]1OCc2ccccc2[C@@H]1N [Example 223] | – | + (LOQ ≤ + <5%) | + (LOQ ≤ + <5%) | ++ (5% ≤ ++ <25%) | + (LOQ ≤ + <5%) | ++ (5% ≤ ++ <25%) | + (LOQ ≤ + <5%) | + (LOQ ≤ + <5%) | ++ (5% ≤ ++ <25%) | +++ (25% ≤ +++ <50%) | 3 to 10 mg/kg | – | – |
| CN(C)C1COCc2ccccc21.Cl (centres unmarked) [Example 60, N,N-dimethylisochroman-4-amine hydrochloride] | 10 to 30 mg/kg | + (LOQ ≤ + <5%) | ++ (5% ≤ ++ <25%) | +++ (25% ≤ +++ <50%) | ++ (5% ≤ ++ <25%) | ++ (5% ≤ ++ <25%) | + (LOQ ≤ + <5%) | ++ (5% ≤ ++ <25%) | + (LOQ ≤ + <5%) | + (LOQ ≤ + <5%) | – | – | – |
| Cc1ccc2c(c1)COCC2N.Cl (centres unmarked) [Example 4] | 10 to 30 mg/kg | + (LOQ ≤ + <5%) | ++ (5% ≤ ++ <25%) | +++ (25% ≤ +++ <50%) | ++ (5% ≤ ++ <25%) | ++ (5% ≤ ++ <25%) | + (LOQ ≤ + <5%) | ++ (5% ≤ ++ <25%) | ++ (5% ≤ ++ <25%) | + (LOQ ≤ + <5%) | – | – | – |
| Cc1ccc2c(c1)[C@H](N)[C@H](C)COC2.Cl (relative stereo) [Example 74, cis-4,7-dimethyl-1,3,4,5-tetrahydrobenzo [c]oxepin-5-amine hydrochloride] | 10 to 30 mg/kg | + (LOQ ≤ + <5%) | ++ (5% ≤ ++ <25%) | ++ (5% ≤ ++ <25%) | + (LOQ ≤ + <5%) | ++ (5% ≤ ++ <25%) | + (LOQ ≤ + <5%) | + (LOQ ≤ + <5%) | + (LOQ ≤ + <5%) | +++ (25% ≤ +++ <50%) | – | – | – |
| C[C@@H]1OCc2ccc3c(c2[C@@H]1N)CCCO3.Cl [Example 248] | – | + (LOQ ≤ + <5%) | ++ (5% ≤ ++ <25%) | ++ (5% ≤ ++ <25%) | ++ (5% ≤ ++ <25%) | + (LOQ ≤ + <5%) | + (LOQ ≤ + <5%) | + (LOQ ≤ + <5%) | + (LOQ ≤ + <5%) | +++ (25% ≤ +++ <50%) | 10 to 30 mg/kg | – | – |
| cis-3-Isopropylisochroman-4-amine hydrochloride [Example 273] | – | + (LOQ ≤ + <5%) | ++ (5% ≤ ++ <25%) | + (LOQ ≤ + <5%) | + (LOQ ≤ + <5%) | ++ (5% ≤ ++ <25%) | ++ (5% ≤ ++ <25%) | + (LOQ ≤ + <5%) | +++ (25% ≤ +++ <50%) | ++ (5% ≤ ++ <25%) | – | A (≤3 mpk) | – |
| Cc1cc2c(cc1C)[C@H](N)[C@H](C)OC2.Cl [Example 237] | – | + (LOQ ≤ + <5%) | + (LOQ ≤ + <5%) | ++ (5% ≤ ++ <25%) | + (LOQ ≤ + <5%) | + (LOQ ≤ + <5%) | + (LOQ ≤ + <5%) | ++ (5% ≤ ++ <25%) | +++ (25% ≤ +++ <50%) | ++ (5% ≤ ++ <25%) | 10 to 30 mg/kg | – | – |
| Cc1ccc2c(c1)C(N)COCC2.Cl (centres unmarked) [Example 34] | – | – | – | +++ (25% ≤ +++ <50%) | ++ (5% ≤ ++ <25%) | + (LOQ ≤ + <5%) | – | ++ (5% ≤ ++ <25%) | ++ (5% ≤ ++ <25%) | – | – | – | B (>3 to 10 mpk) |
| Cl.NC1COCCc2ccc3ccccc3c21 (centres unmarked) [Example 35] | – | + (LOQ ≤ + <5%) | ++ (5% ≤ ++ <25%) | +++ (25% ≤ +++ <50%) | ++ (5% ≤ ++ <25%) | ++ (5% ≤ ++ <25%) | + (LOQ ≤ + <5%) | ++ (5% ≤ ++ <25%) | + (LOQ ≤ + <5%) | +++ (25% ≤ +++ <50%) | – | – | B (>3 to 10 mpk) |
| Cc1ccc(Cl)c2c1C(N)COC2.Cl (centres unmarked) [Example 48, 8-Chloro-5-methylisochroman-4-amine hydrochloride] | < 3 mg/kg | + (LOQ ≤ + <5%) | ++ (5% ≤ ++ <25%) | +++ (25% ≤ +++ <50%) | +++ (25% ≤ +++ <50%) | + (LOQ ≤ + <5%) | + (LOQ ≤ + <5%) | ++ (5% ≤ ++ <25%) | ++ (5% ≤ ++ <25%) | ++ (5% ≤ ++ <25%) | – | – | – |
